According to patent publication US8883410B2, “Method for determining the stability of organic methyleneamines in the presence of semicarbazide-sensitive amine oxidase” (Sanofi, priority 2007, dated 2014):

Target: T1, human SSAO T1 (Gly27-Asn763), untagged (Homo sapiens, UniProt Q16853)
T1 construct: T1 (Gly27-Asn763) Representing the Enzyme Lacking the Membrane Anchoring Region; additional N-terminal Met (N); expressed in transfected cells; cell lysate
T1 sequence (Q16853 27-763): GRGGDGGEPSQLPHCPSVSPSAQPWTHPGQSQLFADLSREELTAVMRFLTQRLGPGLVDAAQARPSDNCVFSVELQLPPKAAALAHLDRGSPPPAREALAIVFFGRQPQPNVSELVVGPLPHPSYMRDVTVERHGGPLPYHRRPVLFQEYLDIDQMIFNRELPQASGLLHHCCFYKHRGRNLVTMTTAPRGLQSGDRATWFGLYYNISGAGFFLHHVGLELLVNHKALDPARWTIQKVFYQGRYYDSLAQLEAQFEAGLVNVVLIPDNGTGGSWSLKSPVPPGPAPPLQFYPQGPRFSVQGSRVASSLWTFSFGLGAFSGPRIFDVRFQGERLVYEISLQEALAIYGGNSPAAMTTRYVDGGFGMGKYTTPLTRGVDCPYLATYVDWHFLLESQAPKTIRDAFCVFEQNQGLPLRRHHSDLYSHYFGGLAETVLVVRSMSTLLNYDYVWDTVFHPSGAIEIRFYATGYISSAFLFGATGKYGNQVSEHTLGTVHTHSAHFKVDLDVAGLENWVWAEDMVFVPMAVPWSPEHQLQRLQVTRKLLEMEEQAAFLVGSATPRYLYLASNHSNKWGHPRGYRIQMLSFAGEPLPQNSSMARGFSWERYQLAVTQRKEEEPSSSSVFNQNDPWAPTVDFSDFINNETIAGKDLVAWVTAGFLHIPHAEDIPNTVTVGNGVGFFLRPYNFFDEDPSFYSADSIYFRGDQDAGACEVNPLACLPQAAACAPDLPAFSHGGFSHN
Experiment: Benzylamine stability in lysate of cells expressing T1 SSAO (untagged), LC/MS/MS
Assay type: in vitro ADME
Procedure: 3) T1 (Gly27-Asn763) Representing the Enzyme Lacking the Membrane Anchoring Region:
The expression constructs were prepared by cloning these PCR products into the pCDNA5-FRT-To-DEST vector (Invitrogen, Gateway System™). The forward and reverse DNA sequence of each construct was confirmed including expressed sequences and at least 100 base pairs either side of this. Stable cell lines for Flp-In CHO, Flp-In CHO T-Rex, and Flp-In HEK 293 (Invitrogen, Flp-In system™) were generated using these 6 constructs according to manufacturer's instructions. Cells were co-transfected with the regulatory vector, pOG44, and each of the pCDNA5-FRT-To-DEST constructs using Lipfectamine (Invitrogen) according to manufacturer's instructions. Thus, 18 cell lines were generated: CHO Flp-In full-length SSAO; CHO Flp-In full-length SSAO with C-terminal 6×HIS tag; CHO Flp-In T1 SSAO; CHO Flp-In T1 SSAO with C-terminal 6×HIS tag; CHO Flp-In T2 SSAO; CHO Flp-In T2 SSAO with C-terminal 6×HIS tag; CHO T-Rex Flp-In full-length SSAO; CHO T-Rex Flp-In full-length SSAO with C-terminal 6×HIS tag; CHO T-Rex Flp-In T1 SSAO; CHO T-Rex Flp-In T1 SSAO with C-terminal 6×HIS tag; CHO T-Rex Flp-In T2 SSAO; CHO Flp-In T2 SSAO with C-terminal 6×HIS tag; HEK 293 Flp-In full-length SSAO; HEK 293 Flp-In full-length SSAO with C-terminal 6×HIS tag; HEK 293 Flp-In T1 SSAO; HEK 293 Flp-In T1 SSAO with C-terminal 6×HIS tag; HEK 293 Flp-In T2 SSAO; HEK 293 Flp-In T2 SSAO with C-terminal 6×HIS tag.
Adherent CHO cells were cultured at 37° C., 5% CO2 in media containing Ham's F12, 10% fetal bovine serum, 2 mM L-glutamine, 1% Penicillin/Streptomycin, 300 μM hygromycin B. Adherent HEK 293 cells were cultured at 37° C., 5% CO2 in D-MEM (high glucose), 10% fetal bovine serum, 2 mM L-glutamine, and 200 μM hygromycin B. Stable transformants were identified by loss of zeocin resistance. Once the cells were 80% confluent, SSAO expression was induced by the addition of Tetracycline to 1 μg/mL. Following 18 hours, the cells were harvested using a trypsin treatment of 3 minutes, at room temperature. Cells were washed 3 times in phosphate buffered saline before flash freezing in liquid nitrogen.
For the preparation of cell lysate for activity testing, frozen cell pellets were resuspended in lysate buffer containing 10 mM Tris-HCl (pH 7.2), 150 mM NaCl, 1.5 mM MgCl2, 1% v/v NP-40 and incubated for 15 minutes on ice. Lysate was cleared by centrifugation 800×g for 10 minutes, 4° C. and stored in aliquots at −80° C. until use. Proteins were determined using Pierce Coomassie Protein Reagent, according to manufacturer's instructions.
For each assay run, 1 mL of cell lysate (1.5 mg/mL protein) was mixed with benzylamine to 2000 ng/mL final concentration. At each corresponding time point, […] the incubation mixture was transferred to a microcentrifuge tube (1.7 mL) and mixed with 50 μL of acetonitrile. The tubes were vortex mixed briefly to ensure complete mixing and then centrifuged at 10,000×g for 5 minutes. The supernatant was removed and 50 μL was transferred to an autosampler vial and mixed with 50 μL of water before LC/MS/MS analysis. Benzylamine remaining in the lysate was analyzed with LC/MS/MS method.
LC/MS/MS analysis was performed with a PE Sciex API 3000 mass spectrometer under the following conditions listed below and in Tables 1 and 2: […]

- Benzylamine Remaining (%) (CHO Flp-In T-Rex lysate, tag One, 0 min): 100%
- Benzylamine Remaining (%) (CHO Flp-In T-Rex lysate, tag One, 10 min): 104%
- Benzylamine Remaining (%) (CHO Flp-In T-Rex lysate, tag One, 2 h): 92%
- Benzylamine Remaining (%) (CHO Flp-In lysate, tag None, 0 min): 100%
- Benzylamine Remaining (%) (CHO Flp-In lysate, tag None, 10 min): 109%
- Benzylamine Remaining (%) (CHO Flp-In lysate, tag None, 2 h): 103%
- Benzylamine Remaining (%) (HEK293 lysate, tag None, 0 min): 100%
- Benzylamine Remaining (%) (HEK293 lysate, tag None, 10 min): 105%
- Benzylamine Remaining (%) (HEK293 lysate, tag None, 2 h): 102%
SMILES: NCc1ccccc1 [Benzylamine]
